Molecular target: T1, human FSH receptor (Homo sapiens, UniProt P23945)
T1 construct: expressed in transfected cells; host or cells: CHO cells (hFSHR clone 16)
T1 sequence (P23945 18-695): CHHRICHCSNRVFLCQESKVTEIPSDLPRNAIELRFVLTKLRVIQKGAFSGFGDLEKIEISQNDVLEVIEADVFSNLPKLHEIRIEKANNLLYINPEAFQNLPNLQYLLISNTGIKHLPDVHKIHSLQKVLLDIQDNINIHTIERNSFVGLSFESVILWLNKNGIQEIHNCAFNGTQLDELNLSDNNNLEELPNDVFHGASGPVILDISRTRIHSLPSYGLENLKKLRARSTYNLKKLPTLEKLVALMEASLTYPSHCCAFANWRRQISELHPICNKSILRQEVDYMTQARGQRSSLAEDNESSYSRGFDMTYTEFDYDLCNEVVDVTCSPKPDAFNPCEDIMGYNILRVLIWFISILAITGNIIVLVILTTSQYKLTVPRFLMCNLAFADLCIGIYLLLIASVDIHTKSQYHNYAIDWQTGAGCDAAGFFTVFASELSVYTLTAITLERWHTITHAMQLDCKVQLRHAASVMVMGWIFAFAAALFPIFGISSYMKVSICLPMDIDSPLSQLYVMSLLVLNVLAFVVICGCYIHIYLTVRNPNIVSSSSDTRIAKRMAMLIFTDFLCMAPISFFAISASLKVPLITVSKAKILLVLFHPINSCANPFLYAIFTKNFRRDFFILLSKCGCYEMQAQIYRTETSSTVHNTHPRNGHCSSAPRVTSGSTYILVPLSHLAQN
Test: HTRF assay for measuring cAMP in cells (FSH antagonism)
Assay type: cell-based
Details: Table 1; hFSHR clone 16 cells (CHO cells stably transfected with the human FSH receptor), in the presence of 1e-9 mol/l hFSH, 37° C. for 2 h; read-out: IC50 (FSH-antagonistic effect in the HTRF assay)
Procedure: HTRF Assay for Measuring cAMP in Cells
The method is based on a competitive immunoassay between native cAMP, which has been produced by the cells, and cAMP which is labelled with XL665. The tracer binding was visualized by a monoclonal antibody, anti-cAMP labelled with cryptate [HTRF=homogeneous time-resolved fluorescence].
The specific signal is inversely proportional to the cAMP concentration of the samples employed.
The 665 nm/620 nm fluorescence ratio was evaluated.
The following material was used: 96-well plates for the tissue culture, 96-well plates with black edge and black base (e.g. Fluotrac 600 from Greiner), 96-well plates for the substance dilutions of polypropylene and cAMP Femtomolar (4000 wells Kit, CIS Bio International # 62AM1PEC).
The following reagents were used: BSA (bovine serum albumin) Fraction V protease-free, IBMX (3-isobutyl-1-methylxanthine), hFSH (human follicle stimulating hormone), Triton X-100 analytical grade, potassium fluoride analytical grade, G 418 (Geneticin) and Accutase.
Buffer 1 (washing and testing buffer) contained PBS, 1 mM CaCl2, 1 mM MgCl2, 0.2% glucose; 0.1% BSA, 1 mM IBMX.
Buffer 2 (2× lysis buffer) contained 1% Triton X-100 in PBS (without CaCl2 and MgCl2).
Buffer 3 (assay buffer) contained 50 mM potassium phosphate buffer (pH 7.0); 800 mM potassium fluoride; 0.2% BSA (always added fresh).
On day 1, the cells were seeded in 96-well plates (3×10^4 cells per well hFSHR clone 16 cells (CHO cells stably transfected with the human FSH receptor in 150 μl of medium).
The next day, test substance dilutions were made up. For this purpose, all the substances were diluted in ice-cold buffer 1 (with or without hFSH), and the substance dilutions were placed on ice until applied to the cells.
The cell supernatant was then aspirated off, and the cells were washed 2× with 200 μl of buffer 1. The cells were treated with 60 μl of the appropriate substance concentrations at 37° C. for 2 h. The cells were then lysed with 60 μl of buffer 2 (put onto the supernatant) (on a plate shaker at RT for 30 min).
The test conjugates (XL-665 and anti-cAMP cryptate) were diluted in buffer 3 in accordance with the manufacturers' information. The actual mixture for measurement was pipetted into a black 96-well plate (in each case 15 μl of the cell lysate diluted with 35 μl of buffer 1; firstly 25 μl of XL-665 conjugate were pipetted and, after 10 min, 25 μl of the anti-cAMP cryptate were added). This is followed by incubation at RT for 90 minutes. The measurement was carried out in a PheraStar (BMG).
Tissue Culture Conditions
Dose-effect curve (hFSH) for the human receptor: 1e-8, 3e-9, 1 e-9, 3e-10, 1 e-10, 3e-11, 1e-11, 3e-12 mol/l.
The test substances were employed in suitable dilutions in the absence (test for agonism) and in the presence of 1e-9 mol/l hFSH.
The values of the well ratio were averaged and then entered directly in SigmaPlot versus the concentrations. The maximum and minimum values were determined for each plate, and half the difference is to be regarded as IC50.

Row | Compound | IC50 [µM]
1 | CNC(=O)c1cccc(C#Cc2cc3c(c(C(=O)N[C@@H](CO)Cc4c[nH]c5ccccc45)c2)OC(C)(C)C=C3)c1 [Example 11, 2,2-Dimethyl-6-(3-methylcarbamoyl-phenylethynyl)-2H-chromene-8-carboxylic acid [(R)-1-hydroxymethyl-2-(1H-indol-3-yl)-ethyl]-amide] | 0.03
2 | O=C(N[C@@H](CO)Cc1c[nH]c2ccccc12)c1cc(-c2ccc3c(c2)OCO3)cc2c1OCC2 [Example 23, 5-Benzo[1,3]dioxol-5-yl-2,3-dihydro-benzofuran-7-carboxylic acid [(R)-1-hydroxymethyl-2-(1H-indol-3-yl)-ethyl]-amide] | 0.45
3 | O=C(N[C@@H](CO)Cc1c[nH]c2ccccc12)c1cc(-c2ccc3ccccc3c2)cc2c1OCC2 [Example 43, 5-Naphthalen-2-yl-2,3-dihydro-benzofuran-7-carboxylic acid [(R)-1-hydroxymethyl-2-(1H-indol-3-yl)-ethyl]-amide] | 4
4 | O=C(N[C@@H](CO)Cc1c[nH]c2ccccc12)c1cc(-c2ccc(O)cc2)cc2c1OCC2 [Example 51, 5-(4-Hydroxy-phenyl)-2,3-dihydro-benzofuran-7-carboxylic acid [(R)-1-hydroxymethyl-2-(1H-indol-3-yl)-ethyl]-amide] | 0.7
5 | CC(=O)c1cccc(-c2cc3c(c(C(=O)N[C@@H](CO)Cc4c[nH]c5ccccc45)c2)OCC3)c1 [Example 56, 5-(3-Acetyl-phenyl)-2,3-dihydro-benzofuran-7-carboxylic acid [(R)-1-hydroxymethyl-2-(1H-indol-3-yl)-ethyl]-amide] | 2
6 | CNC(=O)c1ccc(-c2cc3c(c(C(=O)N[C@@H](CO)Cc4c[nH]c5ccccc45)c2)OCC3)cc1 [Example 65, 5-(4-Methylcarbamoyl-phenyl)-2,3-dihydro-benzofuran-7-carboxylic acid [(R)-1-hydroxymethyl-2-(1H-indol-3-yl)-ethyl]-amide] | 2
7 | N#CCc1ccc(-c2cc3c(c(C(=O)N[C@@H](CO)Cc4c[nH]c5ccccc45)c2)OCC3)cc1 [Example 73, 5-(4-Cyanomethyl-phenyl)-2,3-dihydro-benzofuran-7-carboxylic acid [(R)-1-hydroxymethyl-2-(1H-indol-3-yl)-ethyl]-amide] | 2
8 | Cc1cc(C)cc(-c2cc3c(c(C(=O)N[C@@H](CO)Cc4c[nH]c5ccccc45)c2)OCC3)c1 [Example 78, 5-(3,5-Dimethyl-phenyl)-2,3-dihydro-benzofuran-7-carboxylic acid [(R)-1-hydroxymethyl-2-(1H-indol-3-yl)-ethyl]-amide] | 3
9 | CNC(=O)c1cc(F)cc(-c2cc3c(c(C(=O)N[C@@H](CO)Cc4c[nH]c5ccccc45)c2)OCC3)c1 [Example 82, 5-(3-Fluoro-5-methylcarbamoyl-phenyl)-2,3-dihydro-benzofuran-7-carboxylic acid [(R)-1-hydroxymethyl-2-(1H-indol-3-yl)-ethyl]-amide] | 4
10 | O=C(NC(CO)Cc1c[nH]c2cc(F)ccc12)c1cc(/C=C/c2ccccc2)cc2c1OCCCC2 (stereo not drawn) [Example 83, 7-((E)-Styryl)-2,3,4,5-tetrahydro-benzo[b]oxepine-9-carboxylic acid [2-(6-fluoro-1H-indol-3-yl)-1-hydroxymethyl-ethyl]-amide] | 0.35
11 | CNC(=O)c1ccc(C#Cc2cc3c(c(C(=O)NC(CO)Cc4c[nH]c5cc(F)ccc45)c2)OCCCC3)cc1 (stereo not drawn) [Example 84, 7-(4-Methylcarbamoyl-phenylethynyl)-2,3,4,5-tetrahydro-benzo[b]oxepine-9-carboxylic acid [2-(6-fluoro-1H-indol-3-yl)-1-hydroxymethyl-ethyl]-amide] | 0.05
12 | COc1ccccc1C#Cc1cc2c(c(C(=O)N[C@@H](CO)Cc3c[nH]c4ccccc34)c1)OCCO2 [Example 85, 7-(2-Methoxy-phenylethynyl)-2,3-dihydro-benzo[1,4]dioxine-5-carboxylic acid [(R)-1-hydroxymethyl-2-(1H-indol-3-yl)-ethyl]-amide] | 0.2
